Data as given in patent US20250230151A1, “COMPOUNDS FOR CANCERS DRIVEN BY BRAF MUTATION” (THE BOARD OF TRUSTEES OF THE UNIVERSITY OF ILLINOIS, priority 2021, published 2025).
Where two headings read alike, the source gives them in different places.

What was measured:
U87 cells = assay: 72-hour cell viability assay (Alamar Blue), U87; type: cell-based; details: WT BRAF
Procedure: (§1) Cell Culture and reagents. All cell lines were grown in a 37° C., 5% CO2, humidified environment, in media containing 1% penicillin/streptomycin. Cell culture conditions are as follows: MDCK cells transfected with MDR1 (or ABCB1) were obtained from the Netherlands Cancer Institute (Amsterdam, The Netherlands) and maintained in DMEM with 10% fetal bovine serum (FBS, Gemini). Traditional cell lines A375, CHL-1, B16F10, and U118MG were grown in DMEM with 10% FBS, SK-MEL-28, U87 and T98G in EMEM with 10% FBS, AM-38 in EMEM with 20% HI-FBS (Gibco), HT29 in McCoy's 5A with 10% FBS, HCT116 in RPMI with 10% FBS. Compounds were dissolved in DMSO (1% final concentration, Sigma-Aldrich) for cell culture studies.
(§2) Cell viability assays. Cells were harvested, seeded in a 96-well plate and allowed to adhere overnight. Compound was added to each well in DMSO (1% final concentration). Cells were incubated for 72 hours before viability was assessed by the Alamar Blue Assay. Raptinal ([…]) was used as a dead control.

HCT116 cells = assay: 72-hour cell viability assay (Alamar Blue), HCT116; type: cell-based
Procedure: as §1, §2

cell lines with WTBRAF = assay: Cell viability, cell lines with WT BRAF; type: cell-based
Procedure: as §1, §2

U118MG cells = assay: 72-hour cell viability assay (Alamar Blue), U118MG; type: cell-based; details: WT BRAF
Procedure: as §1, §2

P-gp = molecular target: T1, P-gp (Mus musculus, UniProt P21447); assay: P-gp in vivo assay (elacridar pretreatment); details: for enhancement of BBB penetrance by P-gp inhibition: elacridar 2.5 mg/kg, compound 25 mg/kg IV
T1 construct: tissue Charles River (CD-1 mice); host or cells: living CD-1 mice; blood-brain barrier / brain
Procedure: Actionability in animals. […] At each time point, blood and brain were harvested, and compound concentrations in each compartment were quantified.
In this experiment, brain-to-blood ratios of P-gp substrates […] with the P-gp inhibitor compared to vehicle, while those of non-substrates will remain the same.
Blood-brain barrier penetrance P-gp in vivo assays. […] CD-1 mice were purchased from Charles River and acclimated for 4-7 days before use. Mice were administered elacridar or its vehicle at 2.5 mg/kg via lateral tail vein injection. Thirty-minutes post injection, mice were then treated with compounds at 25 mg/kg intravenously now in the other tail vein. At each time point, mice were sacrificed and blood was collected by lacerating the right auricle with iris scissors. An 18-gauge angiocatheter was inserted through the left ventricle, and all residual circulatory volume was removed by perfusing 0.9% saline solution via an analog peristaltic pump. Brains were harvested from the cranial vault and flash frozen. Blood samples were centrifuged at 13,000 ref for 10 minutes and the supernatant serum was stored at −80° C. until analysis. Brain samples were homogenized in ice-cold methanol and centrifuged first at 2000 ref for three minutes and then 13,000 ref for ten minutes and supernatant and tissue debris were separated and stored at −80° C. The resultant supernatant and serum were analyzed by LC-MS/MS to determine compound concentrations. […] All compounds were administered at 5 mL/kg.

T98G cells = assay: 72-hour cell viability assay (Alamar Blue), T98G; type: cell-based; details: WT BRAF
Procedure: as §1, §2

[1] = Blood-brain barrier penetrance, brain and serum levels after single IV injection; type: in vivo; details: CD-1, mouse, 60 min after single 25 mg/kg IV injection, read-out: brain-to-serum ratio
Procedure: Blood-brain barrier penetrance P-gp in vivo assays. All experimental procedures were reviewed and approved by the University of Illinois Institutional Animal Care and Use Committee (Protocol number: 19191). CD-1 mice were purchased from Charles River and acclimated for 4-7 days before use. Mice were administered elacridar or its vehicle at 2.5 mg/kg via lateral tail vein injection. Thirty-minutes post injection, mice were then treated with compounds at 25 mg/kg intravenously now in the other tail vein. At each time point, mice were sacrificed and blood was collected by lacerating the right auricle with iris scissors. An 18-gauge angiocatheter was inserted through the left ventricle, and all residual circulatory volume was removed by perfusing 0.9% saline solution via an analog peristaltic pump. Brains were harvested from the cranial vault and flash frozen. Blood samples were centrifuged at 13,000 ref for 10 minutes and the supernatant serum was stored at −80° C. until analysis. Brain samples were homogenized in ice-cold methanol and centrifuged first at 2000 ref for three minutes and then 13,000 ref for ten minutes and supernatant and tissue debris were separated and stored at −80° C. The resultant supernatant and serum were analyzed by LC-MS/MS to determine compound concentrations. […] All compounds were administered at 5 mL/kg.

HT29 cells = assay: 72-hour cell viability assay (Alamar Blue), HT29; type: cell-based; details: colon
Procedure: as §1, §2

A375 cells = assay: 72-hour cell viability assay (Alamar Blue), A375; type: cell-based, human; details: for IC50: 72-hour incubation, Alamar Blue, V600E BRAF
Procedure: as §1, §2

SK-MEL-28 cells = assay: 72-hour cell viability assay (Alamar Blue), SK-MEL-28; type: cell-based; details: melanoma
Procedure: as §1, §2

[2] = system: MAPK signaling (phospho-MEK1/2, phospho-ERK1/2) in AM-38 cells; assay: Immunoblotting of MEK1/2 and ERK1/2 phosphorylation, AM-38; type: cell-based; details: AM-38, 1 h of treatment
Procedure: Immunoblotting. Cells were lysed using RIPA buffer containing phosphatase (BioVision) and protease inhibitor cocktail (Calbiochem). Protein concentration was determined using the BCA assay (Pierce). Cell lysates containing […] of protein were loaded into each lane of 4% to 20% gradient gels (Bio-Rad) for SDS-PAGE. Proteins were transferred onto PDVF membrane for Western blot analysis. Blots were blocked with BSA for one hour followed by incubation with primary antibody overnight (dilution according to manufacturer's protocols), and then secondary antibody was incubated for one hour. Blots were then imaged with a ChemiDoc Touch (Bio-Rad) after incubation with SuperSignal West Pico Solution (ThermoFischer) following manufacturer's protocols. All antibodies were purchased from Cell Signaling Technology: p-ERK (9101S), ERK (4695S), p-MEK (9121S), MEK (8727S), vinculin (13901S) Rabbit IgG-HRP (7074), […] (5125).

CHL-1 cells = assay: 72-hour cell viability assay (Alamar Blue), CHL-1; type: cell-based
Procedure: as §1, §2

[3] = system: A375 melanoma cells intracranially implanted; assay: A375 intracranial mouse model of melanoma metastasis; type: in vivo; details: 50 mg/kg IP once a day, two 5-day cycles, 10 doses
Procedure: Number of mice per cohort n>3. […] (C) Evaluation of everafenib in an intracranial mouse model. 50,000 A375 melanoma cells were intracranially implanted into 7-week old female athymic nude mice. Five days after inoculation, mice were treated with the vehicle or 50 mg/kg of dabrafenib or everafenib intraperitoneal (IP) once a day for 5 days. After 2 days off, another five daily doses were administered, a total of 10 treatments in the model. Cells were tested to be free of pathogens prior to inoculation. […] Number of mice per cohort=6. Statistical significance was determined by a two-tailed log-rank (Mantel-Cox) test. **P<0.01 ***P<0.001 ****P<0.0001.
Such a model has been developed using intracranial implantation of the A375 melanoma cell line, and thus, this macro-metastatic model via injection of A375 cells to the mouse forebrain was used to assess everafenib and dabrafenib head-to-head. In the experiment, mice were intracranially implanted with A375 cells and then 5 days later were treated with 50 mg/kg of dabrafenib or everafenib (two cycles of once-per-day for 5 days via IP injection, a total of 10 doses).
In vivo efficacy model. […] Human melanoma A375 cells were intracranially implanted in 7-week-old female athymic nude mice (50,000 cells/mouse). Cells were tested to be free of pathogens prior to inoculation. […]

[4] = system: V600EBRAF melanoma cell lines; assay: Cell viability, panel of V600E BRAF melanoma cell lines; type: cell-based; details: range over the panel; read-out: IC50 values against a panel of V600EBRAF melanoma cell lines
Procedure: as §1, §2

[5] = Homo sapiens, U-87 MG, read-out: U87 IC50
[6] = Homo sapiens, glioma, read-out: U87 (WT) IC50
[7] = Homo sapiens, HCT-116, WT BRAF, colon, read-out: HCT116 (WT) IC50
[8] = Homo sapiens, HCT-116, WT BRAF, read-out: HCT116 IC50
[9] = Homo sapiens, U-118-MG, glioma, read-out: U118MG (WT) IC50
[10] = Homo sapiens, U-118-MG, read-out: U118MG IC50
[11] = Homo sapiens, T98G, glioma, read-out: T98G (WT) IC50
[12] = Homo sapiens, T98G, read-out: T98G IC50
[13] = Homo sapiens, HT-29, V600E BRAF
[14] = Homo sapiens, SK-MEL-28, V600E BRAF
[15] = Homo sapiens, CHL-1, WT BRAF, melanoma, read-out: CHL-1 (WT) IC50
[16] = Homo sapiens, CHL-1, WT BRAF, read-out: CHL-1 IC50

T1 sequence (P21447 whole entry): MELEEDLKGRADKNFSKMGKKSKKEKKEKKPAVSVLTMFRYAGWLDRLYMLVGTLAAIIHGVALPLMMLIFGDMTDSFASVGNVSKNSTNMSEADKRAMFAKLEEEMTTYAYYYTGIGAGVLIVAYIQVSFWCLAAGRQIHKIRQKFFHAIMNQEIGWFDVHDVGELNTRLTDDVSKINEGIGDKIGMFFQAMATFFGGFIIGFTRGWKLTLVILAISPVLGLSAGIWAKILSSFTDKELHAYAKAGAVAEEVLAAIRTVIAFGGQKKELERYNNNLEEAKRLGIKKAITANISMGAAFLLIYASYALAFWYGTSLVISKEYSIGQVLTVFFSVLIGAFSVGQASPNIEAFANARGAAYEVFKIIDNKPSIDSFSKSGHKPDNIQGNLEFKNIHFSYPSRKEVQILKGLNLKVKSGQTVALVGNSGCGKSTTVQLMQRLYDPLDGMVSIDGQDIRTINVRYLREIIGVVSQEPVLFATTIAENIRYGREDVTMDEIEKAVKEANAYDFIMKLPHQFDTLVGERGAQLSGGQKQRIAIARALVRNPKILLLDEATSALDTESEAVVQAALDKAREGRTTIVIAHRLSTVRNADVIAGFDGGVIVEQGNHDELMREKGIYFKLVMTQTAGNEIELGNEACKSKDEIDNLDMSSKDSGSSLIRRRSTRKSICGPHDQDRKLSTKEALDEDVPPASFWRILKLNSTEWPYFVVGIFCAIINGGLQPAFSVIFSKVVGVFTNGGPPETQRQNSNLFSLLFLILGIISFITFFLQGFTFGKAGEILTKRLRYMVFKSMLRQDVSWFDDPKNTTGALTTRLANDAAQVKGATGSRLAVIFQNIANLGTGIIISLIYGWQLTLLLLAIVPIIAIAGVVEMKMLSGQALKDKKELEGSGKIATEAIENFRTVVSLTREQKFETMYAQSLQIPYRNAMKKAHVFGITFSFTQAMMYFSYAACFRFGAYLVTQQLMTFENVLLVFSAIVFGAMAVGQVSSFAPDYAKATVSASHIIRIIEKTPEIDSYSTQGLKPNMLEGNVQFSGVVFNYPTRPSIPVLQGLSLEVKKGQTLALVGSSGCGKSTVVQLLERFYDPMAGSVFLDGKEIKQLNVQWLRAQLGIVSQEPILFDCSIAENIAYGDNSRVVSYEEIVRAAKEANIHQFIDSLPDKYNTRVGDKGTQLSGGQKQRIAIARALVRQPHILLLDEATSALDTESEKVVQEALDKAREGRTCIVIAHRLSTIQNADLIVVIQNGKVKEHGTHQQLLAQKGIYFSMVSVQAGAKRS

CCCS(=O)(=O)Nc1cc(Cl)cc(-c2nc(C(C)(C)C)sc2-c2ccnc(NCCCCC(=O)O)n2)c1F [6-263, 5-((4-(2-(tert-butyl)-4-(5-chloro-2-fluoro-3-(propylsulfonamido)phenyl)thiazol-5-yl)pyrimidin-2-yl)amino)pentanoic acid]
IC50 (U87 cells; [5]): > 10000 nM | IC50 (U87 cells; [6]): > 10000 nM | IC50 (HCT116 cells; [7]): 2100 ± 456 nM | IC50 (HCT116 cells; [8]): 2100 ± 456 nM | IC50 (cell lines with WTBRAF): > 1000 nM | IC50 (U118MG cells; [9]): > 10000 nM | IC50 (U118MG cells; [10]): > 10000 nM | enhancement of BBB penetrance by P-gp inhibition (P-gp; 15 min): 1.5 fold | enhancement of BBB penetrance by P-gp inhibition (P-gp; 60 min): 2.5 fold | IC50 (T98G cells; [11]): > 10000 nM | IC50 (T98G cells; [12]): > 10000 nM | Kp at 60 min [1]: 0.0014 to 0.0069 | IC50 (HT29 cells; [13]): 21.4 ± 4.21 nM | IC50 (A375 cells; Homo sapiens, A-375, 72 h): 27.3 ± 3.01 nM | IC50 (SK-MEL-28 cells; [14]): 22.5 ± 1.2 nM | inhibition of MAPK signaling (MEK1/2 and ERK1/2 phosphorylation) [2]: strongly inhibited | IC50 (CHL-1 cells; [15]): > 10000 nM | IC50 (CHL-1 cells; [16]): > 10000 nM

CC(C)(C)c1nc(-c2cccc(NS(=O)(=O)c3c(F)cccc3F)c2F)c(-c2ccnc(N)n2)s1 [Dabrafenib, reference compound]
IC50 (U87 cells; read-out: U87 IC50): > 1000 nM | IC50 (HCT116 cells; WT BRAF, read-out: HCT116 IC50): > 1000 nM | IC50 (U118MG cells; read-out: U118MG IC50): > 1000 nM | enhancement of BBB penetrance by P-gp inhibition (P-gp; 15 min): 4.3 fold | enhancement of BBB penetrance by P-gp inhibition (P-gp; 60 min): 5.8 fold | IC50 (T98G cells; read-out: T98G IC50): > 1000 nM | IC50 (HT29 cells; V600E BRAF): 4.74 ± 0.84 nM | IC50 (A375 cells): 7.46 ± 1.1 nM | IC50 (A375 cells; listed as 6-74): 5.38 ± 0.38 nM | % Emax (A375 cells; A375, 72-hour incubation): 65% | IC50 (SK-MEL-28 cells; V600E BRAF): 4.76 ± 0.42 nM | median survival [3]: 39 days | IC50 (CHL-1 cells; WT BRAF, read-out: CHL-1 IC50): > 1000 nM

CCCS(=O)(=O)Nc1cc(Cl)cc(-c2nc(C(C)(C)C)sc2-c2ccnc(N)n2)c1F [6-261, N-(3-(5-(2-aminopyrimidin-4-yl)-2-(tert-butyl)thiazol-4-yl)-5-chloro-2-fluorophenyl)propane-1-sulfonamide]
IC50 [4]: 2 to 10 nM | IC50 (U87 cells; [5]): > 1000 nM | IC50 (U87 cells; [6]): > 1000 nM | IC50 (HCT116 cells; [7]): > 1000 nM | IC50 (HCT116 cells; [8]): > 1000 nM | IC50 (cell lines with WTBRAF): > 1000 nM | activity against glioma cell-lines with WTBRAF (U118MG, T98G, U87) (cell lines with WTBRAF; cell culture): no activity | IC50 (U118MG cells; [9]): > 1000 nM | IC50 (U118MG cells; [10]): > 1000 nM | effect of P-gp inhibitor (elacridar) co-treatment on brain exposure (P-gp; result in words): did display potentiation | IC50 (T98G cells; [11]): > 1000 nM | IC50 (T98G cells; [12]): > 1000 nM | Kp at 60 min [1]: 0.286 | IC50 (HT29 cells; [13]): 1.67 ± 0.36 nM | IC50 (A375 cells; Homo sapiens, A-375, 72 h): 2.8 ± 0.53 nM | IC50 (SK-MEL-28 cells; [14]): 2.35 ± 0.13 nM | inhibition of MAPK signaling (MEK1/2 and ERK1/2 phosphorylation) [2]: strongly inhibited | median survival [3]: 50.5 days | IC50 (CHL-1 cells; [15]): > 1000 nM | IC50 (CHL-1 cells; [16]): > 1000 nM
